Data: patent publication US20250122234A1, “NOVEL CRYSTALLINE FORM OF [(2R,3S,4R,5R)-3,4-DIHYDROXY-5-[4-(HYDROXYAMINO)-2- OXOPYRIMIDIN-1-YL]OXOLAN-2-YL]METHYL-2-METHYLPROPANOATE” (priority 2021, published 2025)

Tests used:
influenza A viruses = system: influenza A viruses; parameters: species or system mice; conditions: mouse, in vivo, po
[1] = hygroscopicity, weight increase on exposure to water vapor in climatic chamber; type: physicochemical; conditions: 24 hours, temperature (25±1)°C, relative humidity (80±2)%, 200 mg sample
[2] = study of physicochemical and technological properties

SMILES | clinical symptoms of the disease (influenza A viruses) | titer of the virus in the nasal wash and fever (influenza A viruses) | X (%), increase in the weight of the test substance [1] [%] | virus titer in the nasal wash, less than in groups 2 and 3 (crystal forms I, II) (influenza A viruses) | solubility [2] | stability [2]
CC(C)C(=O)OC[C@H]1O[C@@H](n2ccc(NO)nc2=O)[C@H](O)[C@@H]1O [Polymorph II, [(2R,3S,4R,5R)-3,4-dihydroxy-5-[4-(hydroxyamino)-2-oxopyrimidin-1-yl]oxolan-2-yl]methyl-2-methylpropanoate] | some animals showed a decrease in body weight and shortness of breath | a decrease in the titer of the virus in the nasal wash and a decrease in fever | 5.2 | – | – | –
CC(C)C(=O)OC[C@H]1O[C@@H](n2ccc(NO)nc2=O)[C@H](O)[C@@H]1O [[(2R,3S,4R,5R)-3,4-dihydroxy-5-[4-(hydroxyamino)-2-oxopyrimidin-1-yl]oxolan-2-yl]methyl-2-methylpropanoate] | clinical symptoms of the disease were practically not recorded | a decrease in the titer of the virus in the nasal wash and a decrease in fever | 0.5 | approximately 20% | higher solubility | improving the stability
CC(C)C(=O)OC[C@H]1O[C@@H](n2ccc(NO)nc2=O)[C@H](O)[C@@H]1O [Polymorph I, [(2R,3S,4R,5R)-3,4-dihydroxy-5-[4-(hydroxyamino)-2-oxopyrimidin-1-yl]oxolan-2-yl]methyl-2-methylpropanoate] | some animals showed a decrease in body weight and shortness of breath | a decrease in the titer of the virus in the nasal wash and a decrease in fever | 4.1 | – | – | –
